Laboratory results: patent US9606124B2, “Methods of detecting and treating stem-cell containing solid tumors” (The Regents of The University of Michigan, priority 2008, dated 2017)
“Also recorded” adds a separate entry of the source.

Key:
[1] = tested on: ALDEFLUOR-positive population of SUM159 cell line; experiment: ALDEFLUOR assay on SUM159 cells in vitro (cancer stem cell population); assay type: cell-based, human
Description: ALDEFLUOR Assay and Separation of the ALDH-positive Population by FACS. ALDH activity was assessed in 33 BCLs representing the main molecular subtypes of human breast cancer. The ALDEFLUOR kit (StemCell technologies, Durham, N.C., USA) was used to isolate the population with high ALDH enzymatic activity (17). Cells obtained from subconfluent cell lines after trypsinization or from freshly dissociated xenografts were suspended in ALDEFLUOR assay buffer containing ALDH substrate (BAAA, 1 μmol/l per 1×10^6 cells) and incubated for 40 minutes at 37° C. In each experiment a sample of cells was stained under identical conditions with 50 mmol/L of diethylaminobenzaldehyde (DEAB), a specific ALDH inhibitor, as negative control. Flow cytometry sorting was conducted using a FACStarPLUS (Becton Dickinson). ALDEFLUOR fluorescence was excited at 488 nm and detected using standard fluorescein isothiocyanate (FITC) 530/30 band pass filter. For xenotransplanted tumors, incubation with an anti-H2Kd antibody (BD biosciences, 1/200, 20 min on ice) followed by a secondary antibody labeled with phycoerythrin (Jackson labs, 1/250, 20 min on ice) was used to eliminate cells of mouse origin. The sorting gates were established using PI stained cells for viability, ALDEFLUOR-stained cells treated with DEAB, and those stained with secondary antibody alone. Prior to RNA profiling or NOD/SCID mice injection, the purity of sorted populations was checked using double sorting of 10,000 ALDEFLUOR-positive and negative cells in BrCa-MZ-01 and SUM159 cell lines.
ALDEFLUOR assay. […] In order to eliminate cells of mouse origin from the xenotransplanted tumors, cell population was stained with an anti-H2Kd antibody (BD biosciences, 1/200, 20 min on ice) followed by staining with a secondary antibody labeled with phycoerythrin (PE) (Jackson labs, 1/250, 20 min on ice).

[2] = tested on: FAK Tyr397 and AKT Ser473 phosphorylation; experiment: Western blotting of FAK/AKT activation in SUM159; assay type: cell-based, human; settings: 100 nM, two days
Description: Western blotting. Cells were lysed in a laemmli buffer and loaded onto SDS-polyacrylamide gels. Blots were incubated with the respective primary antibodies diluted in TBST (containing 0.1% Tween20 and 2% BSA) either overnight at 4o, or 2 hours at room temperature. Blots were washed and incubated with appropriate secondary antibodies (GE Healthcare, UK) and detected using SuperSignal West Pico Chemiluminescent Substrate (Pierce).

SUM159 cells = experiment: Metastasis formation after intracardiac injection of SUM159 cells (bioluminescence); assay type: in vivo, NOD/SCID mice; settings: 250,000 cells intracardiac, repertaxin 15 mg/kg s.c. twice a day 28 days vs saline
Description: A SUM159 cell line was infected with a lentivirus expressing luciferase and inoculated 250,000 luciferase infected cells in the heart of NOD/SCID mice. The mice were organized into two groups.
Intracardiac inoculation. Six weeks-old NOD/SCID mice were anesthetized with 2% isofluorane/air mixture and injected in the heart left ventricle with 250,000 cells in 100 μL of sterile Dulbecco's PBS lacking Ca2+ and Mg2+. […] Twelve hours after intracardiac injections, mice were begun on twice per day repertaxin injections or saline for the controls.
Bioluminescence detection. Baseline bioluminescence was assessed before inoculation and each week thereafter inoculations. Bioluminescence detection procedures was performed as previously described (Charafe-Jauffret et al. Cancer Res. 69:1302-1313, herein incorporated by reference in its entirety). Normalized photon flux represents the ratio of the photon flux detected each week after inoculations and the photon flux detected before inoculation.

HCC1954 cells = experiment: Metastasis formation after intracardiac injection of HCC1954 cells (bioluminescence); assay type: in vivo, NOD/SCID mice; settings: 250,000 cells intracardiac, repertaxin 15 mg/kg s.c. twice a day 28 days vs saline
Description: Intracardiac inoculation. […] Twelve hours after intracardiac injections, mice were begun on twice per day repertaxin injections or saline for the controls. Bioluminescence detection. Baseline bioluminescence was assessed before inoculation and each week thereafter inoculations. Bioluminescence detection procedures was performed as previously described ([…] et al. Cancer Res. 69:1302-1313, herein incorporated by reference in its entirety). Normalized photon flux represents the ratio of the photon flux detected each week after inoculations and the photon flux detected before inoculation.

For `CC(C)Cc1ccc([C@@H](C)C(=O)NS(C)(=O)=O)cc1` [Repertaxin], the “percent of ALDEFLUOR-positive cells” value ([1]; SUM159, repertaxin, repertaxin plus anti-FAS-ligand, FAS agonist) was “massive decrease”, the “proportion of ALDEFLUOR-positive cells” value ([1]; SUM159, three days, repertaxin 100 nM, antibodies 10 μg/ml) was “five-fold reduction; also recorded: significant reduction” and the “decrease of the ALDEFLUOR-positive population” value ([1]; SUM159 adherent, 4 days of treatment) was 80%. The “FAK Tyr397 and AKT Ser473 phosphorylation (western blot)” value [2] was “decrease in FAK Tyr397 and AKT Ser473 phosphorylation”, the “FAK Tyr397 and AKT Ser473 phosphorylation (western blot)” value ([2]; listed as repertaxin) was “decrease in FAK Tyr^397 and AKT Ser^473 phosphorylation” and the “metastasis formation (normalized photon flux)” value (SUM159 cells) was “statistically significant increase of metastasis formation in the group of mice treated with saline solution; also recorded: significantly reduced metastasis formation; also recorded: reduces the metastatic potential”. For the same compound, the “metastasis formation (normalized photon flux)” value (SUM159 cells; listed as repertaxin) was “statistically significant decrease in metastasis formation”, the “metastasis formation (normalized photon flux)” value (HCC1954 cells) was “significantly reduced metastasis formation” and the “metastasis formation (normalized photon flux)” value (HCC1954 cells; listed as repertaxin) was “statistically significant decrease in metastasis formation”.
